# Laboratory results as given in ChEMBL document CHEMBL5042539, “Structure-Guided Discovery of the Novel Covalent Allosteric Site and Covalent Inhibitors of Fructose-1,6-Bisphosphate Aldolase to Overcome the Azole Resistance of Candidiasis” (J Med Chem, 2022).
# Experiments:
# [1] = system: Candida albicans; experiment: Selectivity ratio of IC50 for inhibition of Candida albicans Fructose-1,6-Bisphosphate Aldolase C292S mutant to IC50 for inhibition of wild type Candida albicans Fructose-1,6-Bisphosphate Aldolase
# [2] = Inhibition of Candida albicans Fructose-1,6-Bisphosphate Aldolase C292S mutant transfected in Escherichia coli BL21 (DE3) incubated for 3 mins in presence of NADH by spectrophotometric analysis
# [3] = Inhibition of Candida albicans Fructose-1,6-Bisphosphate Aldolase C157S mutant transfected in Escherichia coli BL21 (DE3) incubated for 3 mins in presence of NADH by spectrophotometric analysis
# [4] = Inhibition of Candida albicans Fructose-1,6-Bisphosphate Aldolase C111S mutant transfected in Escherichia coli BL21 (DE3) incubated for 3 mins in presence of NADH by spectrophotometric analysis
# [5] = system: Candida albicans; experiment: Antifungal activity against Candida albicans SC5314 incubated for 48 hrs by CLSI based broth microdilution method; format: functional
# [6] = system: Candida albicans; experiment: Antifungal activity against fluconazole resistant Candida albicans 103 incubated for 48 hrs by CLSI based broth microdilution method; format: functional
# [7] = system: Candida albicans; experiment: Antifungal activity against fluconazole resistant Candida albicans 7781 incubated for 48 hrs by CLSI based broth microdilution method; format: functional
# [8] = system: Candida albicans; experiment: Antifungal activity against fluconazole resistant Candida albicans 904 incubated for 48 hrs by CLSI based broth microdilution method; format: functional
# [9] = Inhibition of wild type Candida albicans Fructose-1,6-Bisphosphate Aldolase transfected in Escherichia coli BL21 (DE3) incubated for 3 mins in presence of NADH by spectrophotometric analysis
# [10] = Toxicity in po dosed rat assessed as lethal dose; format: organism-based; details: in vivo
# [11] = Cytotoxicity against human HaCaT cells; format: toxicity, cell-based
# [12] = system: Candida albicans; experiment: Inhibition of wild type Candida albicans Fructose-1,6-Bisphosphate Aldolase transfected in Escherichia coli BL21 (DE3) assessed as Kcat by kinetic based analysis
# [13] = system: Candida albicans; experiment: Inhibition of wild type Candida albicans Fructose-1,6-Bisphosphate Aldolase transfected in Escherichia coli BL21 (DE3) assessed as Km by kinetic based analysis
# [14] = system: Candida albicans; experiment: Inhibition of wild type Candida albicans Fructose-1,6-Bisphosphate Aldolase transfected in Escherichia coli BL21 (DE3) assessed as Kcat/Km by kinetic based analysis
# [15] = system: Candida albicans; experiment: Inhibition of Candida albicans Fructose-1,6-Bisphosphate Aldolase C292S mutant transfected in Escherichia coli BL21 (DE3) assessed as Kcat by kinetic based analysis
# [16] = system: Candida albicans; experiment: Inhibition of Candida albicans Fructose-1,6-Bisphosphate Aldolase C292S mutant transfected in Escherichia coli BL21 (DE3) assessed as Km by kinetic based analysis
# [17] = system: Candida albicans; experiment: Inhibition of Candida albicans Fructose-1,6-Bisphosphate Aldolase C292S mutant transfected in Escherichia coli BL21 (DE3) assessed as Kcat/Km by kinetic based analysis
# [18] = system: Candida albicans; experiment: Inhibition of Candida albicans Fructose-1,6-Bisphosphate Aldolase C157S mutant transfected in Escherichia coli BL21 (DE3) assessed as Kcat by kinetic based analysis
# [19] = system: Candida albicans; experiment: Inhibition of Candida albicans Fructose-1,6-Bisphosphate Aldolase C157S mutant transfected in Escherichia coli BL21 (DE3) assessed as Km by kinetic based analysis
# [20] = system: Candida albicans; experiment: Inhibition of Candida albicans Fructose-1,6-Bisphosphate Aldolase C157S mutant transfected in Escherichia coli BL21 (DE3) assessed as Kcat/Km by kinetic based analysis
# [21] = system: Candida albicans; experiment: Inhibition of Candida albicans Fructose-1,6-Bisphosphate Aldolase C111S mutant transfected in Escherichia coli BL21 (DE3) assessed as Kcat by kinetic based analysis
# [22] = system: Candida albicans; experiment: Inhibition of Candida albicans Fructose-1,6-Bisphosphate Aldolase C111S mutant transfected in Escherichia coli BL21 (DE3) assessed as Km by kinetic based analysis
# [23] = system: Candida albicans; experiment: Inhibition of Candida albicans Fructose-1,6-Bisphosphate Aldolase C111S mutant transfected in Escherichia coli BL21 (DE3) assessed as Kcat/Km by kinetic based analysis
# [24] = Binding affinity to Candida albicans Fructose-1,6-Bisphosphate Aldolase assessed as inhibition constant incubated for 12 to 40 mins by NADH-linked enzymatic assay
# [25] = system: Candida albicans; experiment: Binding affinity to Candida albicans Fructose-1,6-Bisphosphate Aldolase assessed as Kinact incubated for 12 to 40 mins by NADH-linked enzymatic assay; details: time 12-40 min
# [26] = system: Candida albicans; experiment: Binding affinity to Candida albicans Fructose-1,6-Bisphosphate Aldolase assessed as ratio of kinact/Ki incubated for 12 to 40 mins by NADH-linked enzymatic assay; details: time 12-40 min
# [27] = system: Candida albicans; experiment: Inhibition of Candida albicans Fructose-1,6-Bisphosphate Aldolase C292S mutant transfected in Escherichia coli BL21 (DE3) at 500 uM incubated for 3 mins in presence of NADH by spectrophotometric analysis relative to control
smiles,measurement,setting,value
O=c1c2ccccc2[se]n1-c1ccccc1 [EBSELEN],Ratio IC50,[1],80.4
same,IC50,[2],1.15 µM
same,IC50,[3],0.031 µM
same,IC50,[4],0.0726 µM
same,MIC80,[5],2 µg/mL
same,MIC80,[6],2 µg/mL
same,MIC80,[7],2 µg/mL
same,MIC80,[8],2 µg/mL
same,IC50,[9],0.0143 µM
same,LD,[10],> 4600 mg/kg
same,IC50,[11],> 32 µM
CCCCn1sc2ccccc2c1=O,kcat,[12],38.6 s⁻¹
same,Km,[13],21.9 µM
same,kcat/Km,[14],1.8e+06 M⁻¹ s⁻¹
same,Ratio IC50,[1],> 28.3
same,kcat,[15],24.8 s⁻¹
same,Km,[16],45.7 µM
same,kcat/Km,[17],500000 M⁻¹ s⁻¹
same,IC50,[2],> 500 µM
same,kcat,[18],34.7 s⁻¹
same,Km,[19],17.8 µM
same,kcat/Km,[20],2e+06 M⁻¹ s⁻¹
same,IC50,[3],12.5 µM
same,kcat,[21],36.1 s⁻¹
same,Km,[22],25.1 µM
same,kcat/Km,[23],1.4e+06 M⁻¹ s⁻¹
same,IC50,[4],9.9 µM
same,Ki,[24],5.96 µM
same,Kinact,[25],0.00178 s⁻¹
same,Ratio,[26],300 M⁻¹ s⁻¹
same,IC50,[9],17.7 µM
same,inhibition,[27],< 50%
